According to the supplement of paper PMC5579334:

What was measured:
HS-PSS [1] = assay: relative IC50 (inflection point of fitted dose-response curve, CellTox-Green cytotoxicity, 72 h; top asymptote may be below 50%); higher = less potent
Outline: (§1)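 For 72 h at 37 °C, MPNST cell lines and primary human Schwann cells were exposed in 384-well plates to five 10-fold compound dilutions. CellTox-Green, added before seeding at a final 1:1000 dilution, gave fluorescence from DNA released by disrupted cells. Signals were scaled to vehicle and positive-control wells, cultures failing plate quality control were left out, and four-parameter logistic fits were applied. Relative IC50 and drug sensitivity score were derived from the fits, with IC50 censored at the top concentration.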

HSC1 [2] = assay: as above
Outline: as §1

ST8814 [3] = assay: as above
Outline: as §1

HS-PSS [4] = assay: relative IC50 (inflection point of fitted dose-response curve, CellTiter-Glo viability, 72 h; top asymptote may be below 50% inhibition); higher = less potent
Outline: (§2)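 After seeding 750–1000 cells per well of MPNST cell lines or primary human Schwann cells into 384-well plates preprinted with each compound at five concentrations in 10-fold steps, plates were kept 72 h at 37 °C, 5% CO2. Viability was read as CellTiter-Glo ATP luminescence relative to vehicle and positive-control wells, with duplicates averaged where present. The data were fitted with four-parameter logistic models. Drug sensitivity score and relative IC50, censored at the top concentration, derive from the fits, and percent inhibition refers to the top concentration.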

HS-Sch-2 = assay: as above
Outline: as §2

HSC1 [5] = assay: as above
Outline: as §2

HSC2 [6] = assay: as above
Outline: as §2

S1507-2 = assay: as above
Outline: as §2

S462 = assay: as above
Outline: as §2

ST8814 [7] = assay: as above
Outline: as §2

STS26T [8] = assay: as above
Outline: as §2

YST-1 = assay: as above
Outline: as §2

HSC2 [9] = assay: relative IC50 (inflection point of fitted dose-response curve, CellTox-Green cytotoxicity, 72 h; top asymptote may be below 50%); higher = less potent
Outline: as §1

STS26T [10] = assay: as above
Outline: as §1

CN(C)CCN1C(=O)c2cccc3cc(N)cc(c23)C1=O [Amonafide]
relative IC50 (HS-PSS [1]): 2150 nM
relative IC50 (HSC1 [2]): > 10000 nM
relative IC50 (ST8814 [3]): 3150 nM
relative IC50 (HS-PSS [4]): 2410 nM
relative IC50 (HS-Sch-2): 1700 nM
relative IC50 (HSC1 [5]): 1350 nM
relative IC50 (HSC2 [6]): 1860 nM
relative IC50 (S1507-2): 1360 nM
relative IC50 (S462): 1650 nM
relative IC50 (ST8814 [7]): 1690 nM
relative IC50 (STS26T [8]): 2240 nM
relative IC50 (YST-1): 1020 nM

C[C@]12O[C@H](C[C@]1(O)CO)n1c3ccccc3c3c4c(c5c6ccccc6n2c5c31)CNC4=O [Lestaurtinib]
relative IC50 (HS-PSS [1]): > 1000 nM
relative IC50 (ST8814 [3]): 290 nM
relative IC50 (HS-PSS [4]): 87.2 nM
relative IC50 (HS-Sch-2): 112 nM
relative IC50 (HSC1 [5]): 29.3 nM
relative IC50 (HSC2 [6]): 24.9 nM
relative IC50 (S1507-2): 101 nM
relative IC50 (S462): 93.8 nM
relative IC50 (ST8814 [7]): 130 nM
relative IC50 (STS26T [8]): 155 nM
relative IC50 (YST-1): 59.8 nM

CNC(=O)c1ccc(N2C(=S)N(c3cnc(C#N)c(C(F)(F)F)c3)C(=O)C23CCC3)cc1F [ARN 509]
relative IC50 (HS-PSS [1]): > 10000 nM
relative IC50 (HSC1 [2]): > 10000 nM
relative IC50 (HSC2 [9]): > 10000 nM
relative IC50 (ST8814 [3]): > 10000 nM
relative IC50 (HSC1 [5]): > 10000 nM
relative IC50 (HSC2 [6]): > 10000 nM
relative IC50 (S1507-2): > 10000 nM
relative IC50 (S462): > 10000 nM
relative IC50 (ST8814 [7]): > 10000 nM
relative IC50 (STS26T [8]): > 10000 nM

CC(C)(C)Cn1c(N)nc2ccc(-c3[nH]c(C(C)(C)C)nc3-c3ccc(F)cc3)nc21 [Ralimetinib]
relative IC50 (HS-PSS [1]): > 10000 nM
relative IC50 (HSC1 [2]): > 10000 nM
relative IC50 (HSC2 [9]): > 10000 nM
relative IC50 (ST8814 [3]): > 10000 nM
relative IC50 (STS26T [10]): > 10000 nM
relative IC50 (HS-PSS [4]): 4090 nM
relative IC50 (HS-Sch-2): 3330 nM
relative IC50 (HSC1 [5]): 2330 nM
relative IC50 (HSC2 [6]): 474 nM
relative IC50 (S1507-2): 2140 nM
relative IC50 (ST8814 [7]): 1560 nM
relative IC50 (STS26T [8]): 2920 nM
relative IC50 (YST-1): 115 nM

O=C(c1ccc(OCCN2CCCCC2)cc1)c1c(-c2ccc(O)cc2)sc2cc(O)ccc12 [Raloxifene]
relative IC50 (HSC1 [2]): > 10000 nM
relative IC50 (HSC2 [9]): > 10000 nM
relative IC50 (ST8814 [3]): 3430 nM
relative IC50 (STS26T [10]): 3800 nM
relative IC50 (HS-PSS [4]): 1130 nM
relative IC50 (HS-Sch-2): 1810 nM
relative IC50 (HSC1 [5]): 3100 nM
relative IC50 (HSC2 [6]): 1840 nM
relative IC50 (S1507-2): 3100 nM
relative IC50 (ST8814 [7]): 2940 nM
relative IC50 (STS26T [8]): 3280 nM
relative IC50 (YST-1): 1820 nM

CC1=C2C[C@H]3[C@@H](CC=C4C[C@@H](O)CC[C@@]43C)[C@@H]2CC[C@]12O[C@@H]1C[C@H](C)CN[C@H]1[C@H]2C [Cyclopamine]
relative IC50 (HSC1 [2]): > 10000 nM
relative IC50 (HSC2 [9]): > 10000 nM
relative IC50 (ST8814 [3]): > 10000 nM
relative IC50 (STS26T [10]): > 10000 nM
relative IC50 (HSC1 [5]): > 10000 nM
relative IC50 (HSC2 [6]): > 10000 nM
relative IC50 (S462): > 10000 nM
relative IC50 (ST8814 [7]): > 10000 nM
relative IC50 (STS26T [8]): > 10000 nM

NC(=O)c1cccc2cn(-c3ccc(C4CCCNC4)cc3)nc12 (stereo not given) [MK-4827]
relative IC50 (HSC1 [2]): > 10000 nM
relative IC50 (HSC2 [9]): > 10000 nM
relative IC50 (ST8814 [3]): 3040 nM
relative IC50 (HSC1 [5]): 2110 nM
relative IC50 (S1507-2): 1680 nM
relative IC50 (S462): 1400 nM
relative IC50 (ST8814 [7]): 1650 nM
relative IC50 (STS26T [8]): 1700 nM

Oc1nc(-c2ccc(C(F)(F)F)cc2)nc2c1CSCC2 [XAV-939]
relative IC50 (HS-PSS [1]): > 10000 nM
relative IC50 (HSC1 [2]): > 10000 nM
relative IC50 (HSC2 [9]): > 10000 nM
relative IC50 (ST8814 [3]): > 10000 nM
relative IC50 (HS-Sch-2): > 10000 nM
relative IC50 (HSC1 [5]): 286 nM
relative IC50 (HSC2 [6]): 314 nM
relative IC50 (S1507-2): 1580 nM
relative IC50 (S462): > 10000 nM
relative IC50 (ST8814 [7]): > 10000 nM
